Assay results: patent US3991193A, “Derivatives of 4(3H)-quinazolone, pharmaceutical compositions thereof and methods of use” (Roussel-UCLAF, priority 1973, dated 1976)
Like-named read-outs stand apart in the source and are kept apart here.

How the values were obtained:
rat [1] = assay: Righting Reflex Test in Rat; type: in vivo, Sprague-Dawley rat; settings: for ED50: male Sprague-Dawley rat, read-out: ED50 (loss of righting reflex)
Protocol: Groups of ten male Sprague-Dawley rats received the test compound i.p. or p.o. at various doses. The animals dosed i.p. were assessed for loss of righting reflex immediately after dosing and those dosed p.o. were assessed at 1/4, 1/2, 1, 2, 4 and 6 hours after dosing.

mouse [2] = assay: Potentiation of Hexobarbitone Sleeping Time in Mouse; type: in vivo; settings: i.p., Hexobarbitone Sodium 65 mg/kg i.v.
Protocol: 4. Potentiation of Hexobarbitone Sleeping Time
A group of eight control mice received a dose of 65 mg/kg Hexobarbitone Sodium i.v. and subsequent sleeping times were recorded. A time value equivalent to mean sleeping time plus two standard deviations was established as a cut-off point. Other groups of eight mice received in identical dose of Hexobarbitone Sodium and at half the means control sleeping time were given various doses of the test compound i.p. The number of mice in each group asleep at the cut-off was recorded. A dose response curve was constructed and the dose at which 50% of the mice remained asleep at this cut-off point (ED50) was estimated.

[3] = Acute Toxicity Tests in mouse; settings: in vivo
Protocol: 1. The activity of 2-methyl-3-(o-cyanophenyl)-4(3H)-quinazolone hydrochloride was investigated in the mouse by the following 5 tests.
Acute toxicities by p.o and i.p. routes were conducted using groups of ten mice at various dose levels. Groups dosed p.o. and i.p. were assessed for mortality at 24 hours.
The activity of methaqualone (2-methyl-3-(o-tolyl)-4-quinazolone) was investigated under the same conditions by using the test procedures indicated in the five tests above.

mouse [4] = assay: Righting Reflex Test in Mouse; type: in vivo; settings: for ED50: at time of peak activity, read-out: ED50 (dose producing loss of righting reflex in 50% of a group of mice)
Protocol: Groups of ten mice received the test compound orally or i.p. at various dose levels, a control group receiving vehicle alone. All mice were housed individually in glass beakers and were assessed for loss of righting reflex at 1/4, 1/2, 1, 2, 4 and 6 hours after dosing. […] From the results obtained a dose response line was constructed and the dose producing 50% loss of righting reflex was estimated for each observation time. This ED50 value (the dose producing loss of righting reflex in 50% of a group of mice) was quoted for the time of peak activity.

[5] = Acute Toxicity Test in Rat; settings: in vivo
Protocol: (§1) II. The activity of 2-methyl-3-(o-cyanophenyl)-4(3H)-quinazolone hydrochloride was also investigated in rat by the following tests.
(§2) Groups of ten rats were dosed p.o. or i.p. with various doses of the test compound and after 24 hours were assessed for mortality.
(§3) The activity of Methaqualone was investigated in the same conditions.

mouse [6] = assay: Rotating Drum Test in Mouse; type: in vivo; settings: 0.5 h, 30 min. after dosing, 2 min. test period, read-out: ED50 (dose causing 50% of the mice to fall off the drum)
Protocol: Groups of ten mice received p.o. or i.p. the test compound at various dose levels, a control group receiving the vehicle alone by each route .30 min. after dosing each group of mice was placed on a 30 cm diameter rotating drum revolving at 1 revolution/minute. The mice were placed on the drum against its direction of movement and the number of mice falling off within a 2 min. test period was noted. From the results obtained a dose response line was constructed and the dose causing 50% of the mice to fall off the drum (ED50) was estimated.

mouse [7] = assay: Anticonvulsant Test Against Electroshock in Mouse; type: in vivo; settings: 0.5 h, 30 min. after dosing, electroshock 55 mA, read-out: ED50 (dose protecting 50% of the mice from tonic extension of hind limbs)
Protocol: 3. Anticonvulsant Test Against Electroshock
Groups of ten mice received p.o. or i.p. the test compound at various dose levels, a control group received the vehicle alone. 30 min. after dosing, each group was then shocked via auricular electrodes using the electroshock apparatus (Ugo Basile ECT apparatus for small mammals) using the following parameters: […]
______________________________________
The number of mice which underwent tonic extension of hind limbs was noted. The dose protecting 50% of the mice (ED50) was estimated.

rat [8] = assay: Acute Toxicity Test in Rat
Protocol: as §1, §2, §3

[9] = ip, i.p., assessed immediately after dosing
[10] = po, p.o., assessed 1/4 to 6 hours after dosing

Structure (SMILES) | ED50 (rat [1]; [9]) | ED50 (rat [1]; [10]) | ED50 (dose at which 50% of the mice remained asleep at the cut-off point) (mouse [2]) | LD50 at 24 h ([3]; ip) | LD50 at 24 h ([3]; po) | ED50 (mouse [4]; ip) | ED50 (mouse [4]; po) | LD50 at 24 h ([5]; ip) | LD50 at 24 h ([5]; po) | ED50 (mouse [6]; ip, i.p.) | ED50 (mouse [6]; po, p.o.) | ED50 (mouse [7]; ip, i.p.) | ED50 (mouse [7]; po, p.o.) | effectiveness compared with Methaqualone (rat [1]; rat) | oral hypnotic effectiveness (mouse [4]; oral) | toxicity compared with Methaqualone (rat [8])
Cc1ccccc1-n1c(C)nc2ccccc2c1=O [Methaqualone, 2-methyl-3-(o-tolyl)-4-quinazolone, reference compound] | 48 mg/kg | 170 mg/kg | 25 mg/kg | 550 mg/kg | 1700 mg/kg | 81 mg/kg | 160 mg/kg | 190 mg/kg | 440 mg/kg | 30 mg/kg | 49 mg/kg | 21.5 mg/kg | 42 mg/kg | – | – | –
Cc1nc2ccccc2c(=O)n1-c1ccccc1C#N.Cl [2-methyl-3-(o-cyanophenyl)-4(3H)-quinazolone hydrochloride] | 28 mg/kg | 106 mg/kg | – | 570 mg/kg | 1600 mg/kg | 47 mg/kg | 112 mg/kg | > 300 mg/kg | > 1000 mg/kg | 26.5 mg/kg | 23 mg/kg | 10 mg/kg | 9 mg/kg | much more effective than Methaqualone in the rat | very effective oral hypnotic in mouse | less toxic
